In publication PMC3161826 (Journal of nuclear medicine : official publication, Society …, 2010):
Values joined by “and” are separate entries in the source; they are usually repeats but may differ in a detail not shown here. Identical values can stand only once. Like-named read-outs stand apart in the source and are kept apart here.

Legend:
[1] = target: 18-kDa translocator protein (TSPO); conditions: brain tissue donors B1–B15; ref Owen et al. ([6]); cited from earlier work
[2] = system: 18-kDa translocator protein (TSPO); format: binding, human; conditions: platelets, healthy volunteers
[3] = target: T1, 18-kDa translocator protein (TSPO) (Homo sapiens, UniProt P30536); format: binding; conditions: read-out: Ki, HABs; platelets, healthy volunteers P1–P13; single class of high-affinity sites, 9 of 13
Target sequence in this assay (P30536 2-169): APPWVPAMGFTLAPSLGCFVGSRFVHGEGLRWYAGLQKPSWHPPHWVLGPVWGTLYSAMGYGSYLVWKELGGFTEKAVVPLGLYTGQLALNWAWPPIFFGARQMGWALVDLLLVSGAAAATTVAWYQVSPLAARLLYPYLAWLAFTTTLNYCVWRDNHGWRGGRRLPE

[4] = system: 18-kDa translocator protein (TSPO); assay: Competition binding assay with 3H-PK11195 in human brain tissue membranes; conditions: for Ki ratio of LAB to HAB / Ki: brain tissue donors B1–B15; for Ki: read-out: Ki, MABs (single-site model), mixed-affinity binders, mean ± SEM
[5] = target: T1, 18-kDa translocator protein (TSPO); assay: as above
[6] = target: T1, 18-kDa translocator protein (TSPO); format: binding; conditions: for Ki: unlabeled PBR28 50 nM in each well
[7] = read-out: Ki, HABs, high-affinity binders, brain tissue donors B1–B15, mean ± SEM
[8] = read-out: Ki, LABs, low-affinity binders, brain tissue donors B1–B15, mean ± SEM

Row | Compound | Ki ratio of LAB to HAB [4] | Ki [5, 7] | Ki [5, 8] | Difference in affinity between HABs and LABs ([4]; brain tissue) | Ki [4] | also measured
1 | COc1ccccc1CN(C(C)=O)c1cnccc1Oc1ccccc1 [PBR28, N-{[2-(methyloxy)phenyl]methyl}-N-[4-(phenyloxy)-3-pyridinyl]acetamide] |  |  |  |  |  | Ki ratio of LAB to HAB [1]: 55; Mean fraction of high-affinity sites in MABs [2]: 63% ± 9.8; Ki [3]: 3.1 ± 0.57 nM; Mean fraction of high-affinity sites in MABs ([4]; brain tissue, donors with no history of neurologic disease): 58% ± 6.6; Fraction of high-affinity sites in MABs, range of values ([4]; brain tissue, range across MAB subjects): 38% to 83; Ki ([5]; Ki, LABs, brain tissue, donors with no history of neurologic disease (B14–B33), single class of low-affinity receptors, 4 of 20): 237 ± 35 nM; Ki ([5]; read-out: Ki, HABs, brain tissue, donors with no history of neurologic disease (B14–B33), single class of high-affinity receptors, 9 of 20): 2.9 ± 0.26 nM; Reduction (%) in specific signal after block with PBR28 (50 nM), HABs ([6]; PBR28 50 nM, 3H-PK11195 specific signal, HABs, 60 min, 0.05 µM): 70% and 69.0 ± 4.6 (n = 4) %; Reduction (%) in specific signal after block with PBR28 (50 nM), LABs ([6]; PBR28 50 nM, 3H-PK11195 specific signal, LABs): 21% and 21.2 ± 4.8 (n = 4) %; Occupancy of binding sites in HABs ([6]; PBR28 at 50 nM, expected occupancy): approximately 94%; receptor occupancy at 0.05 µM ([6]; read-out: Occupancy of binding sites in LABs): ~21%
2 | COc1ccc(OC)c(CN(C(=O)CF)c2ccccc2Oc2ccccc2)c1 [PBR06] | 17 | 8.6 ± 2 nM | 149 ± 46.6 nM |  |  | 
3 | CCN(CC)C(=O)Cc1c(-c2ccc(OC)cc2)nn2c(C)cc(C)nc12 [DPA713] |  |  |  | ~ 4 fold and < 5 fold |  | 
4 | CCN(CC)C(=O)Cc1c(-c2ccc(OCCCF)cc2)nc2ccc(Cl)cn12 [PBR111] | 4.0 | 15.6 ± 3.7 nM | 61.8 ± 10.7 nM | ~ 4 fold and < 5 fold | 30.3 ± 4.1 nM | Ki ([6]; read-out: Ki after block with PBR28 (50 nM), LABs, low-affinity binders): 51.7 ± 12.2 nM; Ki ([6]; read-out: Ki after block with PBR28 (50 nM), MABs, mixed-affinity binders): 54.4 ± 5.3 nM
5 | COc1ccc(OC)c(CN(C(C)=O)c2cc(F)ccc2Oc2ccccc2)c1 [DAA1106] | 4.7 | 2.8 ± 0.3 nM | 13.1 ± 1.3 nM | ~ 4 fold and ~ 5 fold and < 5 fold | 4.8 ± 0.4 nM | 
